Test results as given in the supplement of paper PMC10307832.

These cell lines were tested with C[C@]1(c2nc3c(C(N)=O)cccc3[nH]2)CCCN1 [Veliparib] + CS(=O)(=O)N1CCN(Cc2cc3nc(-c4cccc5[nH]ncc45)nc(N4CCOCC4)c3s2)CC1 [Pictilisib] (partner 1 µM) (assay: relative viability (nuclei count vs DMSO), 5 days (fraction); higher = more cells survive). Conditions: first compound 0.02 µM.
Procedure, shortened: (§1)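 After 5 days of treatment, lung cancer cells in 1536-well plates were fixed and stained in a single step (final 0.05% Triton X-100, 1% formaldehyde, 1 ug/ml Hoechst) and their nuclei counted on 4× images. Treatment had been applied by pin tool the day after seeding as one drug alone or as a fixed anchor-drug dose with five library-drug doses (not always all listed) in √10 steps. Relative viability is the nuclei count of treated wells divided by that of vehicle wells, and values are medians of duplicate plates.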

Cell Line | relative viability
NCI-H441 | 0.472
HOP-62 | 0.705
NCI-H2170 | 0.328
NCI-H2347 | 0.666
HARA | 0.498
NCI-H1915 | 0.989
NCI-H23 | 0.598
NCI-H1944 | 0.344
HCC-366 | 0.114
NCI-H322M | 0.496

Same assay, conditions: first compound 0.06325 µM

Cell Line | relative viability
NCI-H441 | 0.501
HOP-62 | 0.79
NCI-H2170 | 0.345
NCI-H2347 | 0.612
HARA | 0.49
NCI-H1355 | 0.329
NCI-H1915 | 0.87
NCI-H23 | 0.477
NCI-H1944 | 0.311
HCC-366 | 0.15
NCI-H322M | 0.459

Same assay, conditions: first compound 0.2 µM

Cell Line | relative viability
NCI-H441 | 0.588
HOP-62 | 0.818
NCI-H2170 | 0.314
NCI-H2347 | 0.668
HARA | 0.244
NCI-H1355 | 0.477
NCI-H1915 | 0.727
NCI-H23 | 0.451
NCI-H1944 | 0.338
HCC-366 | 0.122
NCI-H322M | 0.573

Same assay, conditions: first compound 0.6325 µM

Cell Line | relative viability
NCI-H441 | 0.504
HOP-62 | 0.548
NCI-H2170 | 0.346
NCI-H2347 | 0.707
HARA | 0.398
NCI-H1355 | 0.406
NCI-H1915 | 0.808
NCI-H23 | 0.449
NCI-H1944 | 0.323
HCC-366 | 0.152
NCI-H322M | 0.525

Same assay, conditions: first compound 2 µM

Cell Line | relative viability
NCI-H441 | 0.516
HOP-62 | 0.738
NCI-H2170 | 0.347
NCI-H2347 | 0.724
HARA | 0.415
NCI-H1355 | 0.472
NCI-H1915 | 0.86
NCI-H23 | 0.563
NCI-H1944 | 0.351
HCC-366 | 0.15
NCI-H322M | 0.321

What follows are cell lines tested with C[C@]1(c2nc3c(C(N)=O)cccc3[nH]2)CCCN1 [Veliparib] + Nc1ncn([C@H]2C[C@H](O)[C@@H](CO)O2)c(=O)n1 [Decitabine] (partner 2 µM) in the same assay as above. Conditions: first compound 0.02 µM.
Procedure, shortened: as §1

Cell Line | relative viability
NCI-H441 | 0.227
HOP-62 | 0.221
NCI-H2170 | 0.405
NCI-H2347 | 0.625
HARA | 0.565
NCI-H1355 | 0.388
NCI-H1915 | 0.23
NCI-H23 | 0.318
NCI-H1944 | 0.408
HCC-366 | 0.332

Same assay, conditions: first compound 0.06325 µM

Cell Line | relative viability
NCI-H441 | 0.216
HOP-62 | 0.198
NCI-H2170 | 0.436
NCI-H2347 | 0.556
NCI-H1355 | 0.29
NCI-H1915 | 0.243
NCI-H23 | 0.289
NCI-H1944 | 0.398
HCC-366 | 0.225
NCI-H322M | 0.608

Same assay, conditions: first compound 0.2 µM

Cell Line | relative viability
NCI-H441 | 0.179
HOP-62 | 0.164
NCI-H2170 | 0.378
NCI-H2347 | 0.616
HARA | 0.47
NCI-H1355 | 0.371
NCI-H1915 | 0.267
NCI-H23 | 0.306
NCI-H1944 | 0.353
HCC-366 | 0.195
NCI-H322M | 0.682

Same assay, conditions: first compound 0.6325 µM

Cell Line | relative viability
NCI-H441 | 0.212
HOP-62 | 0.197
NCI-H2170 | 0.389
NCI-H2347 | 0.582
HARA | 0.499
NCI-H1355 | 0.328
NCI-H1915 | 0.242
NCI-H23 | 0.296
NCI-H1944 | 0.41
HCC-366 | 0.189
NCI-H322M | 0.656

Same assay, conditions: first compound 2 µM

Cell Line | relative viability
NCI-H441 | 0.228
HOP-62 | 0.251
NCI-H2170 | 0.381
NCI-H2347 | 0.587
HARA | 0.311
NCI-H1355 | 0.325
NCI-H1915 | 0.266
NCI-H23 | 0.334
NCI-H1944 | 0.407
HCC-366 | 0.182
NCI-H322M | 0.655

What follows are cell lines tested with COC1=CC=C(C=C1)CN2C=CC3=C2C=C(C=C3)C(=O)NO + O=C(c1cc(Cc2n[nH]c(=O)c3ccccc23)ccc1F)N1CCN(C(=O)C2CC2)CC1 [Olaparib] (partner 8 µM) in the same assay as above. Conditions: first compound 0.08 µM.
Procedure, shortened: as §1

Cell Line | relative viability
NCI-H441 | 0.441
NCI-H2170 | 0.55
NCI-H2347 | 0.53
NCI-H1355 | 0.419
NCI-H1915 | 0.233
NCI-H23 | 0.302
HCC-366 | 0.237

Same assay, conditions: first compound 0.253 µM

Cell Line | relative viability
NCI-H441 | 0.58
HOP-62 | 0.47
NCI-H2170 | 0.556
NCI-H2347 | 0.53
HARA | 0.835
NCI-H1355 | 0.807
NCI-H1915 | 0.26
NCI-H23 | 0.282
NCI-H1944 | 0.425
HCC-366 | 0.338

Same assay, conditions: first compound 0.8 µM

Cell Line | relative viability
NCI-H441 | 0.526
HOP-62 | 0.489
NCI-H2170 | 0.635
NCI-H2347 | 0.651
HARA | 1.09
NCI-H1355 | 0.773
NCI-H1915 | 0.234
NCI-H23 | 0.314
NCI-H1944 | 0.422
HCC-366 | 0.371
NCI-H322M | 0.805

Same assay, conditions: first compound 2.53 µM

Cell Line | relative viability
NCI-H441 | 0.497
HOP-62 | 0.396
NCI-H2170 | 0.648
NCI-H2347 | 0.67
HARA | 0.711
NCI-H1355 | 0.775
NCI-H1915 | 0.259
NCI-H23 | 0.322
NCI-H1944 | 0.423
HCC-366 | 0.375
NCI-H322M | 0.845

Same assay, conditions: first compound 8 µM

Cell Line | relative viability
NCI-H441 | 0.609
HOP-62 | 0.384
NCI-H2170 | 0.523
NCI-H2347 | 0.524
HARA | 0.762
NCI-H1355 | 0.727
NCI-H1915 | 0.24
NCI-H23 | 0.304
NCI-H1944 | 0.374
HCC-366 | 0.292
NCI-H322M | 0.621

These cell lines were tested with C[C@]1(c2nc3c(C(N)=O)cccc3[nH]2)CCCN1 [Veliparib] + NC(=O)Nc1cc(-c2cccc(F)c2)sc1C(=O)N[C@H]1CCCNC1 [AZD7762] (partner 0.2 µM) in the same assay as above. Conditions: first compound 0.02 µM.
Procedure, shortened: as §1

Cell Line | relative viability
NCI-H441 | 1.12
HOP-62 | 0.567
NCI-H2170 | 0.849
NCI-H2347 | 0.77
HARA | 0.346
NCI-H1355 | 0.733
NCI-H1915 | 0.661
NCI-H23 | 0.35
NCI-H1944 | 0.521
HCC-366 | 0.233

Same assay, conditions: first compound 0.06325 µM

Cell Line | relative viability
NCI-H441 | 1.09
HOP-62 | 0.65
NCI-H2170 | 0.904
NCI-H2347 | 0.787
NCI-H1355 | 0.685
NCI-H1915 | 0.643
NCI-H23 | 0.216
NCI-H1944 | 0.592
HCC-366 | 0.253
NCI-H322M | 0.629

Same assay, conditions: first compound 0.2 µM

Cell Line | relative viability
NCI-H441 | 1.14
HOP-62 | 0.621
NCI-H2170 | 0.786
NCI-H2347 | 0.788
HARA | 0.302
NCI-H1355 | 0.726
NCI-H1915 | 0.517
NCI-H23 | 0.201
NCI-H1944 | 0.504
HCC-366 | 0.174
NCI-H322M | 0.573

Same assay, conditions: first compound 0.6325 µM

Cell Line | relative viability
NCI-H441 | 1.01
HOP-62 | 0.463
NCI-H2170 | 0.829
NCI-H2347 | 0.769
HARA | 0.308
NCI-H1355 | 0.684
NCI-H1915 | 0.556
NCI-H23 | 0.277
NCI-H1944 | 0.511
HCC-366 | 0.164
NCI-H322M | 0.744

Same assay, conditions: first compound 2 µM

Cell Line | relative viability
NCI-H441 | 1.04
HOP-62 | 0.598
NCI-H2170 | 0.734
NCI-H2347 | 0.624
HARA | 0.573
NCI-H1355 | 0.739
NCI-H1915 | 0.519
NCI-H23 | 0.28
NCI-H1944 | 0.529
HCC-366 | 0.231
NCI-H322M | 0.611
